Data set [1] has as its system NCI-H358 non-small cell lung cancer cells. Kind of data set: Inhibition of NCI-H358 cell proliferation (CellTiter-Glo 3D, 7 days). It is filed as cell-based. Conditions: Homo sapiens, NCI-H358, 168 h, 3D microspheres, read-out: Inhibitory activity against NCI-H358 cell proliferation (IC50). The essentials:
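NCI-H358 cells at 2000/well in ultra-low attachment plates grown overnight into spheroids, then exposed to 8-point 5-fold compound dilutions in RPMI-1640/10% FBS for 7 days at 37 °C. Viability by CellTiter-Glo 3D luminescence; inhibition relative to no-inhibitor and cell-free controls.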
(In ATP-based viability assays light output follows the ATP content of the culture.)

The nature of data set [2]: Rat liver microsomal metabolic stability. It is filed as in vitro ADME. Conditions: rat liver microsomes. The essentials:
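Rat liver microsomes (1 mg/mL working solution) with test compound (working solution 100 µM) were pre-incubated 5 min at 37 °C, then started with NADPH (4.0 mM working solution). Residual compound measured by LC-MS/MS over time. T1/2 taken from first-order decay, scaled to CLint and hepatic CL with fu = 1.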
(In general: Liver microsomes are a subcellular fraction often used to study metabolism.)

Another data set has as its target T1, CYP2C19 (Homo sapiens, UniProt P33261).
T1 construct: human liver microsomes were used as the CYP450 enzyme source; from tissue; host or cells: human liver microsomes
Kind of data set: Inhibition of hepatic drug-metabolizing enzymes in human liver microsomes. It counts as in vitro ADME. The text has this: (§1) The main site of drug metabolism is the liver, and the main component of the mixed-function oxidase system present in the liver is the CYP450 enzyme. This enzyme system causes most clinically observed drug-drug interactions, which in turn leads to an increased incidence of adverse drug reactions. CYP450 is a group of supergene family composed of many isozymes, wherein CYP3A4 acts as a major metabolizing enzyme and is involved in the metabolism of nearly half of clinically used drugs. Similarly, CYP2C9 and CYP2C19 also act as important metabolizing enzymes and are involved in the metabolism of various drugs clinically. Therefore, evaluating the risk of drug-drug interactions by testing the inhibitory activity of compounds on CYP450 enzymes at an early stage can improve the safety of medication use.
(§2) In the present disclosure, human liver microsomes were used as the CYP450 enzyme source. The specific probe substrates for each CYP isoenzyme (wherein CYP3A4 used two substrates, midazolam and testosterone, denoted as CYP3A4-M and CYP3A4-T respectively) were incubated with a series of concentrations of the test compound in the presence of the cofactor NADPH. The production amount of metabolites of probe substrates in the incubation system was determined by LC-MS/MS, and the IC50 values of the test compound against each CYP450 enzyme subtype were calculated to evaluate its inhibitory effect on each CYP450 enzyme subtype. During the experiment, 49 µL of PBS, 50 µL of probe substrate, and 50 µL of human liver microsome working solution were sequentially added to the incubation system, followed by the addition of 1 µL of the test compound working solution at each concentration, and the mixture was mixed well. After pre-incubation at 37°C for 5 min, 50 µL of NADPH was added to initiate the reaction. After incubation for the corresponding time, an appropriate amount of ice-cold acetonitrile containing an internal standard was added to terminate the reaction. The mixture was vortexed to mix well, centrifuged, and the supernatant was taken. The supernatant was injected into LC-MS/MS to determine the production amount of metabolites of the probe substrate. Taking the enzyme activity at the 0-concentration point (characterized by the production amount of metabolites) as 100%, the percentage of residual enzyme activity of metabolites at different concentrations of the test compound was calculated. IC50 was calculated by the residual enzyme activity using Graphpad Prism software.

The target in the next data set is T2, CYP2C9 (Homo sapiens, UniProt P11712).
T2 construct: human liver microsomes were used as the CYP450 enzyme source; from tissue; host or cells: human liver microsomes
The data set is described as above. It is filed as in vitro ADME.
Source text: as §1, §2

[3] abbreviates: calculated from T1/2, fu defaulted to 1, read-out: CL(liver).
Where [4] appears, read: human liver microsomes, read-out: Inhibitory activity on drug-metabolizing enzymes (IC50, µM) CYP2C19.
[5] abbreviates: human liver microsomes, read-out: Inhibitory activity on drug-metabolizing enzymes (IC50, µM) CYP2C9.

This passage reports IC50, half-life and CLint scaled results from patent publication EP4722213A1, “NITROGEN-CONTAINING FUNCTIONAL GROUP-SUBSTITUTED PYRIDAZINOPYRIDONE DERIVATIVE AND USE THEREOF” (Sichuan Huiyu Pharmaceutical Co., Ltd., priority 2023, dated 2024).

Where two headings read alike, the source gives them in different places.

T1 sequence (P33261 whole entry): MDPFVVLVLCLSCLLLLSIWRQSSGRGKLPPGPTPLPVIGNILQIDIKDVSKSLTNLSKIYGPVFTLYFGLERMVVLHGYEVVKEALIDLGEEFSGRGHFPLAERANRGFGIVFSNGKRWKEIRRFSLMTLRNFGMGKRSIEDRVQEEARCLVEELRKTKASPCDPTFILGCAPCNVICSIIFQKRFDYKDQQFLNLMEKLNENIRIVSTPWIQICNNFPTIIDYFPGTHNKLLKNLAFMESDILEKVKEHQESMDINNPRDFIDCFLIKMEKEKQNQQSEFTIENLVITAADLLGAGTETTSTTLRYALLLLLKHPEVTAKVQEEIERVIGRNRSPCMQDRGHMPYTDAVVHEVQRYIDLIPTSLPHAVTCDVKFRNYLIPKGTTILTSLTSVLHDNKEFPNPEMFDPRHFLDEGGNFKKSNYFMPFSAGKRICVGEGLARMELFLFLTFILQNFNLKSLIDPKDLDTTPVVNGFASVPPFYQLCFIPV
T2 sequence (P11712 whole entry): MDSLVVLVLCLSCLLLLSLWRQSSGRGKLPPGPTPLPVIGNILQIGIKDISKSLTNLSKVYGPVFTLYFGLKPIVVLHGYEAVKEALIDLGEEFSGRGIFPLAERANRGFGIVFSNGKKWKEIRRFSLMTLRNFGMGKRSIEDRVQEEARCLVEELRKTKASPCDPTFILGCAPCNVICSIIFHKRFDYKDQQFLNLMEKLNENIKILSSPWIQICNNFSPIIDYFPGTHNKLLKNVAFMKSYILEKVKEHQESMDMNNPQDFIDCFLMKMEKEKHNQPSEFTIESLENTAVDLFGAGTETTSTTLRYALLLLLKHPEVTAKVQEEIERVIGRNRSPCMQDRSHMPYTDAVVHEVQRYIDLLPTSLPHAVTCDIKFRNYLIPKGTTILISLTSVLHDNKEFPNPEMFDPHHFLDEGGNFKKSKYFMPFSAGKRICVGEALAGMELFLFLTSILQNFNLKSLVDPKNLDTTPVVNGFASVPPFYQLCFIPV

For the compound `C[C@@H](Nc1nnc(N2CCN(C3CCCC3)CC2)c2cc(=O)n(N3CCOCC3)cc12)c1cccc(C(F)F)c1F` [Example 120, (R)-4-((1-(3-(difluoromethyl)-2-fluorophenyl)ethyl)amino)-1-(4-cyclopentylpiperazin-1-yl)-6-morpholinopyrido[3 ,4-d]pyridazin-7(6H)-one], the IC50 in data set [1] was 0.0249 µM; at CYP2C19 (setting [4]), over 10 µM; on CYP2C9 (setting [5]), over 10 µM. Besides, the half-life – broadly, how long it takes for the measured level to halve – at 1 µM in data set [2] (NADPH, 37°C) is over 5 h. The CLint scaled at 1 µM in data set [2] (setting [3]) was under 7.23 mL/min/kg.

As for `CNc1nnc(N[C@H](C)c2cccc(C(F)(F)F)c2C)c2cn(C3CC3)c(=O)cc12` [Example 52, (R)-6-cyclopropyl-4-((1-(2-methyl-3-(trifluoromethyl)phenyl)ethyl)amino)-1-(methylamino)pyrid o[3,4-d]pyridazin-7(6H)-one], the IC50 is 0.0615 µM in data set [1], over 10 µM at CYP2C19 (setting [4]) and over 10 µM on CYP2C9 (setting [5]). The compound also yielded a half-life at 1 µM in data set [2] (NADPH, 37°C) of 1.41 h. The CLint scaled at 1 µM in data set [2] (setting [3]) is 19.2 mL/min/kg.

With `CCN1CCN(c2nnc(N[C@H](C)c3cccc(C(F)F)c3F)c3cn(C4CCC4)c(=O)cc23)CC1` [Example 112, (R)-6-cyclobutyl-4-((1-(3-(difluoromethyl)-2-fluorophenyl)ethyl)amino)-1-(4-ethylpiperazin-1-yl)pyrido[3,4-d]pyridazin-7(6H)-one], the IC50 in data set [1] was 0.0202 µM; on CYP2C19 (setting [4]), over 10 µM; on CYP2C9 (setting [5]), over 10 µM. The half-life at 1 µM in data set [2] (NADPH, 37°C) was 3.32 h. Moreover, the CLint scaled at 1 µM in data set [2] (setting [3]) was 10.2 mL/min/kg.

On to `CC(C)N1CCN(c2nnc(N[C@H](C)c3cccc(C(F)F)c3F)c3cn(C4(C)CC4)c(=O)cc23)CC1` [Example 217, (R)-4-((1-(3-(difluoromethyl)-2-fluorophenyl)ethyl)amino)-1-(4-isopropylpiperazin-1-yl)-6-(1-methylcyclopropyl) pyrido[3,4-d]pyridazin-7(6H)-one], for which the IC50 in data set [1] was 0.0471 µM; on CYP2C19 (setting [4]), over 10 µM; at CYP2C9 (setting [5]), over 10 µM. Moreover, in data set [2] (NADPH, 37°C), the half-life at 1 µM stood at 4.33 h. Moreover, the CLint scaled at 1 µM in data set [2] (setting [3]) was 8.18 mL/min/kg.

With `CCN1CCN(c2nnc(N[C@H](C)c3cccc(C(F)F)c3F)c3cn(N4CCOCC4)c(=O)cc23)CC1` [Example 109, (R)-4-((1-(3-(difluoromethyl)-2-fluorophenyl)ethyl)amino)-1-(4-ethylpiperazin-1-yl)-6-morpholinopyrido[3 ,4-d]pyridazin-7(6H)-one], the results for the IC50 (in data set [1]; at CYP2C19 (setting [4]); on CYP2C9 (setting [5])) were 0.0166 µM, over 10 µM and over 10 µM, respectively. Also, the half-life at 1 µM in data set [2] (NADPH, 37°C) was over 5 h. Also, the CLint scaled at 1 µM in data set [2] (setting [3]) is under 7.23 mL/min/kg.

Turning to `CC(C)N1CCN(c2nnc(N[C@H](C)c3cccc(C(F)F)c3F)c3cn(N4CCOCC4)c(=O)cc23)CC1` [Example 111, (R)-4-((1-(3-(difluoromethyl)-2-fluorophenyl)ethyl)amino)-1-(4-isopropylpiperazin-1-yl)-6-morpholinopyrido[3 ,4-d]pyridazin-7(6H)-one], the IC50 in data set [1] was 0.0144 µM; at CYP2C19 (setting [4]) it was over 10 µM; on CYP2C9 (setting [5]) it was over 10 µM. For the same compound, in data set [2] (NADPH, 37°C), the half-life at 1 µM is over 5 h. Moreover, the CLint scaled at 1 µM in data set [2] (setting [3]) is under 7.23 mL/min/kg.

Consider `CC(C)Nc1nnc(N[C@H](C)c2cccc(C(F)F)c2F)c2cn(C3(C)CC3)c(=O)cc12.O=CO` [Example 12, (R)-4-((1-(3-(difluoromethyl)-2-fluorophenyl)ethyl)amino)-1-(isopropylamino)-6-(1-methylcyclopropyl) pyrido[3,4-d]pyridazin-7(6H)-one formate], for which the values for the IC50 (in data set [1]; on CYP2C19 (setting [4]); on CYP2C9 (setting [5])) were 0.0363 µM, over 10 µM and over 10 µM, respectively. This compound had a half-life at 1 µM in data set [2] (NADPH, 37°C) of 2.5 h. The CLint scaled at 1 µM in data set [2] (setting [3]) is 12.8 mL/min/kg.

Regarding `C[C@@H](Nc1nnc(N2CCN(C)CC2)c2cc(=O)n(C3CC3)cc12)c1cccc(C(F)F)c1F` [Example 77], the IC50 in data set [1] was 0.0396 µM; at CYP2C19 it was over 10 µM; against CYP2C9, over 10 µM. In data set [2] (NADPH, 37°C), this compound came in with a half-life of over 5 h. Further, the CLint scaled in data set [2] (setting [3]) was under 7.23 mL/min/kg.

Take `CNc1nnc(N[C@H](C)c2cccc(C(F)F)c2F)c2cn(C3(C)CC3)c(=O)cc12.O=CO` [Example 9, (R)-4-((1-(3-(difluoromethyl)-2-fluorophenyl)ethyl)amino)-1-(methylamino)-6-(1-methylcyclopropyl) pyrido[3,4-d]pyridazin-7(6H)-one formate]: the IC50 in data set [1] was 0.0426 µM; at CYP2C19 (setting [4]) it was over 10 µM; at CYP2C9 (setting [5]), over 10 µM. Further, the half-life at 1 µM in data set [2] (NADPH, 37°C) was 4.33 h. The CLint scaled at 1 µM in data set [2] (setting [3]) is 8.2 mL/min/kg.

With `CCN1CCN(c2nnc(N[C@H](C)c3cccc(C(F)F)c3F)c3cn(C4(C)CC4)c(=O)cc23)CC1` [Example 216, (R)-4-((1-(3-(difluoromethyl)-2-fluorophenyl)ethyl)amino)-1-(4-ethylpiperazin-1-yl)-6-(1-methylcyclopropyl) pyrido[3,4-d]pyridazin-7(6H)-one], the IC50 was 0.0364 µM in data set [1], over 10 µM at CYP2C19 (setting [4]) and over 10 µM at CYP2C9 (setting [5]). In addition, the half-life at 1 µM in data set [2] (NADPH, 37°C) is 4.85 h. The CLint scaled at 1 µM in data set [2] (setting [3]) is 7.43 mL/min/kg.

Turning to `C[C@@H](Nc1nnc(N2CCN(C(C)(C)C)CC2)c2cc(=O)n(C3(C)CC3)cc12)c1cccc(C(F)F)c1F.O=CO` [Example 222, (R)-1-(4-(tert-butyl)piperazin-1-yl)-4-((1-(3-(difluoromethyl)-2-fluorophenyl)ethyl)amino)-6-(1-methylcyclopropyl) pyrido[3,4-d]pyridazin-7(6H)-one formate], the IC50 in data set [1] is 0.0334 µM; on CYP2C19 (setting [4]), over 10 µM; on CYP2C9 (setting [5]) it was over 10 µM. Moreover, in data set [2] (NADPH, 37°C), the half-life at 1 µM turned out to be 3.63 h. In addition, the CLint scaled at 1 µM in data set [2] (setting [3]) is 9.47 mL/min/kg.

`CCN1CCN(c2nnc(N[C@H](C)c3cccc(C(F)F)c3F)c3cn(C4CC(F)(F)C4)c(=O)cc23)CC1` [Example 98, (R)-6-(3,3-difluorocyclobutyl)-4-((1-(3-(difluoromethyl)-2-fluorophenyl)ethyl)amino)-1-(4-ethylpiperazin-1-yl)pyrido[3,4-d]pyridazin-7(6H)-one]: the IC50 in data set [1] is 0.0376 µM; at CYP2C19 (setting [4]), over 10 µM; at CYP2C9 (setting [5]) it was over 10 µM. The compound further showed a half-life at 1 µM in data set [2] (NADPH, 37°C) of 3.12 h. The CLint scaled at 1 µM in data set [2] (setting [3]) was 10.8 mL/min/kg.

With `C[C@@H](Nc1nnc(N2CCN(C)CC2)c2cc(=O)n(C3(C)CC3)cc12)c1cccc(C(F)F)c1F.O=CO` [Example 80, (R)-4-((1-(3-(difluoromethyl)-2-fluorophenyl)ethyl)amino)-6-(1-methylcyclopropyl)-1-(4-methylpiperazin-1-yl)pyrido[3,4-d]pyridazin-7(6H)-one formate], the IC50 in data set [1] is 0.0208 µM; on CYP2C19 (setting [4]) it was over 10 µM; at CYP2C9 (setting [5]) it was over 10 µM. This compound also came in with a half-life at 1 µM in data set [2] (NADPH, 37°C) of 2.68 h. The CLint scaled at 1 µM in data set [2] (setting [3]) is 12.1 mL/min/kg.

Turning to `C[C@@H](Nc1nnc(N2CCN(C)CC2)c2cc(=O)n(C3CCC3)cc12)c1cccc(C(F)F)c1F` [Example 88, (R)-6-cyclobutyl-4-((1-(3-(difluoromethyl)-2-fluorophenyl)ethyl)amino)-1-(4-methylpiperazin-1-yl)pyrido[3,4-d]pyridazin-7(6H)-one], the IC50 in data set [1] was 0.0231 µM; at CYP2C19 (setting [4]), over 10 µM; at CYP2C9 (setting [5]) it was over 10 µM. In data set [2] (NADPH, 37°C), the half-life at 1 µM worked out at 2.13 h. The CLint scaled at 1 µM in data set [2] (setting [3]) is 14.4 mL/min/kg.
